Like-named read-outs stand apart in the source and are kept apart here.

One assay has as its system human neutrophils. The experiment in a line: ROS production of PMA-activated neutrophils (chemiluminescence). Format: cell-based. Particulars: activation by 100 ng/ml PMA; FIG. 1. On the procedure:
ROS production is measured using a chemiluminescence standard procedure: briefly, one hundred microliters of human neutrophils (4×10^6/mL) were primed with TNF-α at 37° C. for 25 minutes. 100 μL luminol (1 μM final concentration) and HRP (62.5 U/mL final concentration) in HBSS were added, and 150-μL aliquots were transferred to a prewarmed 96-well luminometer plate. Light emission was recorded by a Berthold MicroLumat Plus luminometer (Berthold Technologies, Hartfordshire, United Kingdom) (data output is in relative light units per second)

For another assay, the system named is mast cells. The experiment in a line: Mast cell degranulation estimated by beta-hexosaminidase release (IgE/anti-IgE). Format: cell-based. Particulars: 1 hour after IgE stimulation. How it is done:
Degranulation was induced by the addition of IgE followed by the addition of anti-IgE Beta-hexosaminidase was measured 1 hour after IgE stimulation. Reference molecule was cromoglycate.

The test system of the next assay is activated mast cells. The experiment in a line: IL6 release from activated mast cells. Format: cell-based. The conditions noted are these: primed mast cells activated by anti IgE, 6 hours; FIG. 2. On the procedure: Mast cells were obtained from CD34+ progenitors cultivated during 8 weeks in the presence of stem cell factor and IL3. Some mast cells (light grey with spots) were primed during 5 days by IL4 and IgE. Primed mast cells were activated by anti IgE and IL6 release is measured 6 hours following the activation. Masitinib (Masi) a c-kit receptor inhibitor is taken as positive control. Dark grey corresponds to the basal release of IL6 in the absence of mast cells activation. Maximum release of resting mast cells were obtained by the use of a calcium ionophore.

For assay [1] the following is noted: read-out: NO scavenging IC50; cited from earlier work.
The conditions of assay [2]: read-out: 2,2-diphenyl-1-picrylhydrazyl scavenging IC50; cited from earlier work.
For assay [3] the following is noted: 10 mg/kg; cited from earlier work.
Assay [4] concerns Chick Chorioallantoic Membrane (CAM) vessel network. The experiment in a line: CAM vessel network following PDT irradiation. Format: in vivo. On the procedure: 5-ALA (20 mg/ml; pH=6.8) was topically applied on CAM 4 hours before PDT □ For Catechin samples, Catechin (at different concentrations: 1-30 μM) was topically applied on CAM 15 min before PDT-PDT: λ=405 nm irradiance=2.86 mW/cm2 light dose=1.2 J/cm2-10 μM Catechin has the most protective effect against PDT deleterious effect. 5-ALA: aminolevulinique acid.

Setting [5] is: 10−4 M, control without IgE 0.132.
[6] abbreviates: 10−5 M, control without IgE 0.135.

As to `O=C1c2c(O)cc(O)cc2O[C@H](c2ccc(O)c(O)c2)[C@H]1O` [DHQ, Dihydroquercetin], the “reactive oxygen species (ROS) production by neutrophils” value with human neutrophils is given as “inhibitory effect”. Further, the figures for the beta-hexosaminidase release with mast cells (setting [5]) and in the assay on mast cells (setting [6]) were 0.28 and 0.52, respectively. Further, the “IL6 release from activated mast cells” value in the assay with activated mast cells is “inhibitor of IL6 release”.
Turning to `Oc1cc(O)cc(/C=C/c2ccc(O)cc2O)c1` [Oxyresveratrol], the IC50 (commonly the concentration at which inhibition is half-maximal) in assay [1] was 45.3 µM. The IC50 in assay [2] is 28.9 µM. Besides, in assay [3], the brain infarct volume result was “reducing”, the caspase-3 activation result is given as “reducing” and the cytochrome c release result is “reducing”.
With `O=C(O)c1cc(=O)c2c(OCC(O)COc3cccc4oc(C(=O)O)cc(=O)c34)cccc2o1` [Reference molecule, cromoglycate, reference compound], the beta-hexosaminidase release was 0.34 with mast cells (setting [5]) and 0.48 with mast cells (setting [6]).
For (+)Catechin, the “Catechin concentration at which microvessel protection is evidenced (as low as)” value in assay [4] (presence of microvessels in the CAM vasculature network, FIG. 5A) is 1 µM. In assay [4] (topically applied on CAM 15 min before PDT, tested 1-30 μM, 5-ALA 20 mg/ml), the “Catechin concentration with the most protective effect against PDT deleterious effect” value turned out to be 10 µM.

(Values after patent US20210113523A1, “Compositions For Treating And/Or Preventing Photodynamic Therapy Side Effects” (AC BIOSCIENCE SA, priority 2018, published 2021).)
